Columns and labels:
Assay in all cases: drug sensitivity score (DSS) from 5-point dose-response viability curve (DSS (area-under-curve based score)); higher = more sensitive (stronger growth inhibition or killing); extreme values may be limits of the assay
Settings in all cases: exposure time: 72 h; concentration range: 5 concentrations over 10,000-fold range
HOSE2C = tested on: HOSE2C
Method in brief: (§1)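 Viability of ovarian cancer and normal ovarian cell lines was read by CellTiter-Glo luminescence after 3 days at 37°C and 5% CO2 in 384-well plates holding 1,500 cells per well. Drugs had been dispensed in DMSO or water with an Echo 550 at five concentrations over a 10,000-fold range. Using Breeze software, a drug sensitivity score was assigned per cell line and drug, higher scores meaning more sensitive, and zero means no response.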

COV362 = tested on: COV362
Method in brief: as §1

Kuramochi = tested on: Kuramochi
Method in brief: as §1

OVCAR8 = tested on: OVCAR8
Method in brief: as §1

Ovsaho = tested on: Ovsaho
Method in brief: as §1

OVCAR5 = tested on: OVCAR5
Method in brief: as §1

HOSE1C = tested on: HOSE1C
Method in brief: as §1

JHOS2 = tested on: JHOS2
Method in brief: as §1

OV90 = tested on: OV90
Method in brief: as §1

CAOV3 = tested on: CAOV3
Method in brief: as §1

COV318 = tested on: COV318
Method in brief: as §1

OVCAR4 = tested on: OVCAR4
Method in brief: as §1

Row | SMILES | drug sensitivity score (HOSE2C) | drug sensitivity score (COV362) | drug sensitivity score (Kuramochi) | drug sensitivity score (OVCAR8) | drug sensitivity score (Ovsaho) | drug sensitivity score (OVCAR5) | drug sensitivity score (HOSE1C) | drug sensitivity score (JHOS2) | drug sensitivity score (OV90) | drug sensitivity score (CAOV3) | drug sensitivity score (COV318) | drug sensitivity score (OVCAR4)
1 | NC(=O)N1CCC(CC(=O)N2CCC([C@H]3c4ncc(Br)cc4CCc4cc(Cl)cc(Br)c43)CC2)CC1 [Lonafarnib] | 8.9 | 1.9 | 11 | 9.4 | 9.8 | 9.1 | 8 | 8.4 | 15.8 | 8.9 | 9.2 | 9.1
2 | CCc1cc2c(cc1N1CCC(N3CCOCC3)CC1)C(C)(C)c1[nH]c3cc(C#N)ccc3c1C2=O [Alectinib] | 0 | 0 | 0 | 0.4 | 0 | 1.5 | 0 | 0 | 0 | 0 | 0 | 0
3 | CCOc1ccn(-c2ccc(F)cc2)c(=O)c1C(=O)Nc1ccc(Oc2ccnc(N)c2Cl)c(F)c1 | 0 | 0 | 0 | 0 | 0 | 0 | 0 | 0 | 0 | 0 | 0 | 0
4 | Cc1c2oc3c(C)ccc(C(=O)N[C@@H]4C(=O)N[C@H](C(C)C)C(=O)N5CCC[C@H]5C(=O)N(C)CC(=O)N(C)[C@@H](C(C)C)C(=O)O[C@@H]4C)c3nc-2c(C(=O)N[C@@H]2C(=O)N[C@H](C(C)C)C(=O)N3CCC[C@H]3C(=O)N(C)CC(=O)N(C)[C@@H](C(C)C)C(=O)O[C@@H]2C)c(N)c1=O [Dactinomycin] | 30.5 | 13.9 | 27.9 | 24.3 | 26.5 | 20.9 | 34.6 | 26.5 | 23.1 | 23.4 | 9 | 17.5
5 | CCCCCCCCc1ccc(CCC(N)(CO)CO)cc1 [Fingolimod] | 5.4 | 6.2 | 7.5 | 6.8 | 7.6 | 6.4 | 7.4 | 5.5 | 6.2 | 6 | 7 | 7.5
6 | Cc1ccc(C(=O)Nc2ccc(Oc3cc4cnn(C)c4cc3-c3cn[nH]c3)c(F)c2)c(=O)n1-c1ccc(F)cc1 [Merestinib] | 0 | 0 | 1.1 | 0.1 | 0 | 0.9 | 0 | 2.4 | 0.6 | 0 | 0 | 0.4
7 | CC(C)(C)c1cnc(CSc2cnc(NC(=O)C3CCNCC3)s2)o1 [SNS-032] | 12.1 | 13.9 | 15.8 | 20 | 18.9 | 18.5 | 21.2 | 23.3 | 16.1 | 16.2 | 11 | 13.9
8 | COc1cc2nccc(Oc3ccc(NC(=O)C4(C(=O)Nc5ccc(F)cc5)CC4)cc3)c2cc1OC [Cabozantinib] | 0.6 | 0.2 | 3.1 | 0 | 0 | 1.5 | 0 | 1 | 4.5 | 0.4 | 2.2 | 0
9 | C/C=C1\NC(=O)[C@H]2CSSCC/C=C/[C@H](CC(=O)N[C@H](C(C)C)C(=O)N2)OC(=O)[C@H](C(C)C)NC1=O [Romidepsin] | 35.8 | 11.9 | 27.8 | 28.1 | 25.9 | 33.3 | 39.3 | 22.7 | 29.8 | 28.2 | 12.3 | 20.8
10 | Nc1cc(COc2c(Cl)cc(C[C@H](N)C(=O)O)cc2Cl)c2oc(-c3ccccc3)nc2c1 [JPH203] | 0 | 0 | 0 | 0 | 0 | 7.5 | 0 | 0 | 0 | 0 | 0 | 0.2
11 | CCNCCS(=O)(=O)NC[C@@]1(c2ccccc2)SC(NC(=O)C(C)(C)C)=NN1C(=O)C(C)(C)C [Litronesib] | 16.7 | 1.1 | 7.5 | 18.4 | 7.8 | 19 | 25 | 6.1 | 11.6 | 23.2 | 3.4 | 4.9
12 | Cc1c(-c2ccc(N3CCc4cccc(C(=O)Nc5nc6ccccc6s5)c4C3)nc2C(=O)O)cnn1CC12CC3CC(CC(C3)C1)C2 | 5.8 | 0 | 0 | 0.8 | 2.5 | 1 | 20.6 | 0 | 7.6 | 5.1 | 0 | 2.1
13 | CC(C)NC(=O)COc1cccc(-c2nc(Nc3ccc4[nH]ncc4c3)c3ccccc3n2)c1 [KD025] | 0 | 0.5 | 3.8 | 8.2 | 1.9 | 2 | 0 | 1.2 | 8.7 | 0.4 | 0 | 3.6
14 | CC[C@@H]1CN(C(=O)NCC(F)(F)F)C[C@@H]1c1cnc2cnc3[nH]ccc3n12 [Upadacitinib] | 0 | 0.2 | 0.8 | 0 | 0 | 0 | 0 | 0 | 1.3 | 0 | 2.1 | 0

— the supplement of paper PMC11616607
